One assay relates to SIRPα. Briefly: SIRPα gene expression in mouse macrophages by qRT-PCR. The class given is cell-based. The note with it: A31A7 macrophages and BMDMs, unpolarized and polarized, qRT-PCR (FIG. 2A). The protocol:
Bone marrow-derived macrophages were isolated from the femurs and tibias of wild-type C57/Bl6, HDAC6 knockout (C57BL/6J-Hdac6em2Lutzy/J, 029318, Jackson Laboratory), or UBC-GFP (C57BL/6-Tg(UBC-GFP)30Scha/J, 004353, Jackson Laboratory). Isolated bone marrow cells were cultured in RPMI 1640 complete medium with 10% FBS, 1% NEAA, and 1% penicillin-streptomycin in 5% CO2 at 37° C. Medium was supplemented with murine recombinant M-CSF (20 ng/mL, 576404, Biolegend) to differentiate monocytes into macrophages. Three days after bone marrow isolation, undifferentiated and floating cells were washed with PBS and replaced with fresh RPMI media. A3.1A7 cells and BMDMs were pretreated with 5 μM of HDAC6 inhibitor NextA or vehicle prior to adding polarizing cytokines. […]
qRT-PCR: Total RNA was extracted from cells using the Trizol reagent according to manufacturer's instructions (ThermoFisher Scientific, 15596018). […] RNA was quantified using a NanoDrop One Spectrophotometer (ThermoFisher Scientific). […] Target mRNA was quantified using MyIQ single-color real-time PCR detection system from Bio-Rad (Bio-Rad, Hercules, CA) and iQ SYBR green Supermix (Bio-Rad, 1708882). […] Quantification is expressed in arbitrary units and target mRNA levels were normalized to R-actin expression.
On the technique in general: Real-time PCR tracks product formation cycle by cycle.

Assay [1] deals with WM793 human melanoma cells. Description: CD47 gene expression upon IFNγ in WM793 cells. The class given is cell-based. The conditions noted are these: 5 μM NextA (FIG. 3L). The protocol: qRT-PCR: Total RNA was extracted from cells using the Trizol reagent according to manufacturer's instructions (ThermoFisher Scientific, 15596018). Samples were then processed immediately or stored at −80° C. RNA was quantified using a NanoDrop One Spectrophotometer (ThermoFisher Scientific). The 260/280 ratios were routinely over 1.8. Sample cDNA was produced using the iScript cDNA synthesis kit (Bio-Rad, 1708891). Target mRNA was quantified using MyIQ single-color real-time PCR detection system from Bio-Rad (Bio-Rad, Hercules, CA) and iQ SYBR green Supermix (Bio-Rad, 1708882). […] Quantification is expressed in arbitrary units and target mRNA levels were normalized to R-actin expression.
This phenomenon was further examined in human melanoma cell lines to test the translational application of the results obtained using mouse models. […] Furthermore, the effects of HDAC6 KD on IFNγ-driven CD47 upregulation was analyzed. […] The effects of pharmacological inhibition of HDAC6 in other human melanoma cell lines (WM1361A and WM793) were also assessed. […]

In the case of `CCCCN(Cc1ccc(C(=O)NO)cc1)C(=O)Nc1ccccc1` [NextA, Nexturastat A], the entries for the “Sirpa expression at the transcriptional level” value in the assay on SIRPα and in the assay with SIRPα (listed as Nexturastat A) were “significantly downregulated” and “downregulated”, respectively. The “IFNγ-driven CD47 upregulation” value in assay [1] is “corroborated”.

These data come from patent US20230391868A1, “COMPOSITIONS FOR AND METHODS OF TREATING CANCER” (The George Washington University, priority 2022, published 2023).
